Assay results taken from patent US10390536B2, “Methods, compounds and compositions for repelling insects and/or arachnids” (National Center for Scientific Research “Demokritos”, priority 2013, dated 2019).
Like-named read-outs stand apart in the source and are kept apart here.

Tests used:
Type in all cases: in vivo
[1] = tested on: Anopheles gambiae (Giles) ss strain 16CSS female mosquitoes; assay: warm body repellence assay (mosquito landings); conditions: for repellent activity in the warm body assay (in words): candidate compounds, initially 1.0-5.0 μg/cm^2 (about 5-31.5 nmole/cm^2)
Protocol: To test the behavior of female mosquitoes to an essential oil containing OBP binding components, a previously described repellence assay [Kröber et al. (2010). An In Vitro Assay for Testing Mosquito Repellents Employing a Warm Body and Carbon Dioxide as a Behavioral Activator. Journal of the American Mosquito Control Association 26(4) 381-386] was conducted that measures the number of mosquito landings on a warm surface onto which an essential oil containing at least one candidate compound was applied.
To conduct a repellency assay, a selected essential oil or ethanol negative control was applied to a warm body at a dose of about 3.8 μg/cm^2 and allowed to dry for 40 seconds in order to allow evaporation of the solvent before introduction into the test cage with mosquitoes. As positive control for repellence, DEET dissolved in ethanol was applied to the warm body at the same dose. The treated warm body in conjunction with a pulse of carbon dioxide was introduced into the test cage containing fifty Anopheles gambiae (Giles) ss strain 16CSS female mosquitoes that were 4-11 days old and the number of mosquito landings on the warm body occurring within a 2-minute period was counted. Each candidate compound was tested in five different cages (i.e., 250 female mosquitoes) in a randomized design, and the ethanol control and up to four candidate compounds were tested in each cage. Raw data on numbers of landings by mosquitoes were analyzed using a linear mixed model accounting for treatment, experimental day, the individual cage, the number of females per cage and the level of the carbon dioxide pulse in ppm using R (R Development Core Team, 2010) and the packages LME4 (Bates and Maechler, Ime4: Linear mixed-effects models using {S4} classes.{R} package version 0.999375-32, 2009) and NLME (Pinheiro et al, nlme: Linear and Nonlinear Mixed Effects Models, 2010; the R Development Core Team, R: A Language and Environment for Statistical Computing, 2010). Repellent values were calculated from counted landings on treatments versus the overall landings on pooled controls.
To test the behavior of female mosquitoes to a candidate compound identified in Example 5, behavioral assays were made using the identified compounds. The repellent assay was performed as described in Example 3, except that candidate compounds were dissolved in ethanol and tested initially at doses between 1.0 and 5.0 μg/cm^2 (about 5-31.5 nmole/cm^2) and, whenever necessary, at lower and/or higher doses as well. Besides the compounds identified in Example 5, compounds related to these were also tested including ethyl-cinnamate and butyl-cinnamate (Table 4).
To test the behavior of female mosquitoes to various combinations of candidate compounds identified in Example 6, repellence assays were made as in Example 3. These repellent assays were made to compare the effectiveness of the strongest repellent compounds identified in Example 6, including, without limitation, carvacrol, ethyl cinnamate, butyl cinnamate, and cumin alcohol with that of DEET.
The doses tested were 2, 4, 6 10 and 20 nmol/cm^2 for the single compounds. The binary 50:50 mixtures were tested at 2, 6, 10 and 20 nmol/cm^2, with each compound making up half the amount tested, so that, for example, the 2 nmol/cm^2 concentration in column A+B represents 1 nmol/cm^2 of A and 1 nmol/cm^2 of B in a binary mixture. DEET was also tested at 25 nmol (top response) and carvacrol was tested at the additional dose of 2.5 nmol (second from left within its column). As an indication, DEET at 20 nmol/cm^2=3.8 μg/cm^2. Mosquitoes were activated using a puff of CO2 from a gas tank upon introduction of the warm body into the test cage containing 50±5 A. gambiae females and mosquito landings were counted for 2 minutes. Each treatment (dose) was tested using five test cages, i.e. on a total of 250 female A. gambiae. […]

Anopheles gambiae s.l. = assay: experimental hut field trial of spatial repellence, Anopheles; conditions: single compound, 1 ml in open vial in MM-X trap
Protocol: (§1) To test the effects of repellent compounds or compositions disclosed herein on mosquitoes in a controlled environment resembling actual living quarters and conditions, field trials with standardized experimental huts were conducted at Kainji Dam in North Central Nigeria.
(§2) Six such huts were built in a straight line, and the distance between huts was 11 meters. These huts follow a traditional square design, the walls are built with concrete blocks that are subsequently plastered with cement, each wall has a window. The ceiling is plywood and the roof is thatched with eaves that are open, thereby allowing free flow of air into and out of the hut, and thus entry and exit of mosquitoes. There is a door for entry and exit. Two opposing sides of each hut have window exit traps and screened verandas to capture mosquitoes leaving via the windows or eaves. Each hut is raised off the ground on a concrete platform and surrounded by a moat filled with water in order to prevent ants from entering. Each hut is fitted with a mattress and an untreated bed net for sleepers. These huts are similar in design and concept to those used previously elsewhere for studying mosquito behavior and measuring the efficacy of various mosquito control products or intervention methods in Tanzania and Gambia. For design parameters refer to WHOPES 2005. The huts are adjacent to a tributary of the River Niger at a distance of 10 km from the Kainji Dam site and face rice fields known to harbor permanent mosquito breeding sites. The mosquitoes endemic to this area of Nigeria are highly endophillic, that is, they rest mainly indoors.
(§3) Human volunteers that participated as sleepers in this field trial were provided with anti-malarial chemical prophylaxis on a weekly basis, and the protocols used herein were reviewed and approved by the Research Ethics Review Committee of the Nigerian Institute of Medical Research. Six male adult volunteers, aged between 25 and 35 years old, were recruited to sleep in the huts described above. Sleepers were allocated to huts randomly for each series of trials, and this randomization process occurred nightly. The volunteers entered the huts by 21:00 each night and remained inside the huts until 06:30 the following morning. Each morning, the windows were closed and the exit traps blocked with a piece of cloth to prevent mosquitoes that entered from exiting. The traps were then put in a freezer at −20° C. to kill all the mosquitoes before being emptied for identification. By means of a sucking aspirator the verandas and rooms were visually searched for live mosquitoes and any insects found were collected in labelled cups. A 10-minute search was conducted for each hut (room and veranda traps). The exit traps were emptied into a labelled cup and all the mosquitoes placed in the freezer at −20° C. for about 30 minutes before morphological identification.
(§4) The Mosquito Magnet trap Model-X (MM-X trap made by the firm formerly known as American Biophysics (ABC), USA) is a 12V battery operated counter-flow trap that was used as the repellent dispersing device to evaluate the efficacy of repellent compounds or compositions disclosed herein. Four compounds, carvacrol, cumin alcohol, ethyl cinnamate, and butyl cinnamate, were evaluated in comparison to DEET as a nonproprietary conventional repellent in a first experiment. The chemical compounds were provided in liquid form: carvacrol (98%), butyl cinnamate (98%), ethyl cinnamate (98%), cumin alcohol (97%) and DEET (97%). […]

Culex spp. = assay: experimental hut field trial of spatial repellence, Culex; conditions: single compound, 1 ml in open vial in MM-X trap
Protocol: as §1, §2, §3, §4

[2] = 2 nmol (per cm^2, total for mixtures, 50:50)
[3] = 4 nmol (per cm^2, total for mixtures, 50:50)
[4] = 6 nmol (per cm^2, total for mixtures, 50:50)
[5] = 10 nmol (per cm^2, total for mixtures, 50:50)
[6] = 20 nmol (per cm^2, total for mixtures, 50:50)
[7] = Anopheles gambiae, 2 min, read-out: Median Repellency (%)

SMILES | Median repellence % [1, 2] | Median repellence % [1, 3] | Median repellence % [1, 4] | Median repellence % [1, 5] | Median repellence % [1, 6] | Median repellence % ([1]; 25 nmol (per cm^2)) | median repellency (%) at 20 nmol/cm2 ([1]; Anopheles gambiae, 2 min, 20 nmole per cm^2, read-out: Median Repellency (%)) | mosquito counts on the inside walls of the huts (in words) (Anopheles gambiae s.l.) | mosquito counts on the inside walls of the huts (in words) (Culex spp.) | median repellency (%) at 25 nmol/cm2 [1, 7] | repellent activity in the warm body assay (in words) [1] | repellent activity (in words) ([1]; total concentration 2 nmole/cm^2) | median repellency (%) at 20 nmol/cm2 [1, 7] | spatial repellent effect, induced exophily (in words) (Anopheles gambiae s.l.; per night) | spatial repellent effect, induced exophily (in words) (Culex spp.; per night)
CCN(CC)C(=O)c1cccc(C)c1 [DEET, N,N-diethyl-3-methylbenzamide, reference compound] | 2% | 41% | 80% | 96% | 98% | 100% | 98.5% | reduced mosquito counts on the inside walls | reduced mosquito counts on the inside walls |  |  |  |  |  | 
Cc1ccc(C(C)C)cc1O [carvacrol, 5-isopropyl-2-methylphenol] | 13% | 55% | 40% | 59% |  | 93% |  | reduced mosquito counts on the inside walls | reduced mosquito counts on the inside walls | 93.3% | activity comparable to DEET | retained repellent activity |  |  | 
CC(C)c1ccc(CO)cc1 [cumin alcohol] | −4% | 38% | 46% | 53% | 93% |  |  |  |  |  | activity comparable to DEET |  | 92.3% | significantly lower than that of DEET | significantly lower than that of DEET
